Counter-ions that a name gives are not always drawn.
Legend:
[1] = target: rat striatal dopamine receptor (Rattus norvegicus, UniProt P61169); experiment: Test A: [3H]Spiroperidol displacement from rat striatal dopamine receptor binding sites; details: rat striatal membranes, [3H]spiroperidol 0.19 nM, 37° C., 10 minutes, pH 7.6; read-out: Test A receptor DA IC50
Procedure: Test A--[^3 H Spiroperidol displacement from rat striatal dopamine receptor binding sites
(a) Radioligand--[phenyl-4-(n)-^3 H]Spiroperido (Amersham International, TRK 570, 21 Ci/mmol was used as a 1 μCi/1 μl solution in ethanol and this solution was diluted to 250 μCi in 1 ml of ethanol to produce a stock solution. This stock solution was diluted 3.2/10,000 in assay buffer and 0.1 ml volumes of this were added to 2 ml binding assays =0.19 nM [^3 H]spiroperidol and =[…]
(b) Assay buffer--The assay buffer was a modified 50 mM Tris HCl buffer with a pH of 7.6 containing the following additions: NaCl-120 mM, KCl-5 mM, MgCl2 -1 mM, CaCl2 -2 mM, Pargyline-10 μM and 1-Ascorbic Acid-0.1%
(c) Membrane preparation--The striata were dissected from male CFHB rats and homogenized in 20 volumes of ice cold 0.32M sucrose with a Teflon/glass homogenizer and the homogenate was centrifuged at 1000 g for 10 minutes. The resulting supernatant was recentrifuged at 30,000 g for 30 minutes and the supernatant was discarded and the pellet was resuspended by homogenization in 30 volumes of ice cold assay buffer.
(d) Non-specific binding--Non-specific binding was accounted for by the inclusion of 1 μM(+)butaclamol in blank binding assays which required a stock solution of 20 μM in distilled water.
(e) Displacing compounds--Solutions were prepared at 20x final assay concentration in distilled water.
(f) Binding assay protocol--1.3 ml assay buffer, 0.5 ml membrane suspension, 0.1 ml distilled H2 O or drug solution and 0.1 ml [^3 H]spiroperidol dilution Binding assays were made up in ice with the [^3 H]spiroperidol being added last and incubated at 37° C. for 10 minutes. The bound ligand was separated by filtration through Whatman GF/C filters under vacuum followed by 2×10 ml rinses of ice cold assay buffer. The filters were dried at 80° C. and counted in 5 ml volumes of ECONOFLUOR (NEN) scintillation cocktail. All binding assays, controls, blanks and each of four displacer concentration were run in triplicate. IC50 values (Test A) were obtained graphically from log dose versus percent inhibition of specific binding plots.

rat cortical α1 receptor = experiment: Test B: [3H]Prazosin displacement from rat cortical α1 receptor binding sites; details: rat cerebral cortex membranes, [3H]prazosin 0.1 nM, 25° C., 30 minutes, pH 7.5
Procedure: Test B--[^3 H]Pyrazosin displacement from rat cortical α1 receptor binding sites (a) Radioligand--[^3 H]Prazosin (Amersham International, TRK 647, 28 Ci/mmole) was used as a 1 μCi/1 μl solution and this stock solution was diluted 1/18,000 in assay buffer and 0.1 ml volumes of this were added to 2 ml binding assay. =0.1 nM [^3 H]Prazosin and =0.0056 μCi/binding assay (b) Membrane preparation--The cerebral cortices were dissected from male CFHB rats and homogenized in 20 volumes of ice cold 0.32M sucrose using a Teflon/glass homogenizer and the homogenate was centrifuged at 1000 g for 10 minutes. The resulting pellet was discarded and the supernatant was recentrifuged at 30,000 g for 30 minutes. The supernatant was discarded and the pellet was resuspended by homogenization in 50 volumes of 50 mM pH 7.5 Tris HCl buffer (assay buffer). (c) Non-specific binding--Non-specific binding was accounted for by the inclusion of 100 μM 1-noradrenaline in blank binding assays which required a stock solution of 2 mM 1-noradrenaline made up fresh daily in 0.1% 1-ascorbic acid. (d) Displacing compounds--Solutions were prepared at 20x final assay concentration in distilled water. (e) Binding assay protocol--1.3 ml assay buffer, 0.5 ml membrane suspension, 0.1 ml distilled H2 O or drug solution and 0.1 ml [^3 H]pyrazosin dilution Binding assays were made up in ice with the [^3 H]pyrazosin being added last and incubated at 25° C. for 30 minutes. The bound ligand was separated by filtration through Whatman GF/C glass fibre filters under vacuum followed by 2×10 ml rinses of ice cold assay buffer. The filters were dried at 80° C. and counted in 5 ml volumes of ECONOFLUOR (NEN) scintillation cocktail. All binding assays, controls, blanks and each of four displacer concentrations were run in triplicate. IC50 values (Test B) were obtained graphically from log dose versus percent inhibition of specific binding plots.

rat cortical α2 receptor = experiment: Test C: [3H]Dihydroergocryptine displacement from rat cortical α2 receptor binding sites; details: rat cortical membranes, [3H]dihydroergocryptine 0.45 nM, 25° C., 45 minutes in the dark; approximately 80% of binding is α2
Procedure: Test C--[^3 H]Dihydroergocryptine displacement from rat cortical α2 *receptor binding sites
(a) Radioligand--[9,10(n)-^3 H]9,10-Dihydroergocryptine (Amersham International, TRK 555, 17.5 Ci/mmole) was used as a 1 μCi/1 μl solution and this stock solution was diluted 1/6250 in assay buffer and 0.1 ml volumes of this were added to 2 ml binding assays. =0.45 nM and =0.016 μCi/binding assay
*In cortical membranes, [^3 H]dihydroergocryptine binds to both α1 and α2 receptor binding sites under the conditions of assay described here, approximately 80% of the binding is associated with α2 receptors.
(§1) (b) Membrane preparation--As for Test B
(c) Non-specific binding--As for Test B
(d) Displacing compounds--As for Test B
(e) Assay protocol--As for Test B with the exception that the binding assays were incubated at 25° C. for 45 minutes in the dark.

[2] = target: rat cortical muscarinic receptor; experiment: Test D: [3H]Quinuclidinyl benzylate displacement from rat cortical muscarinic receptor binding sites; details: rat cortical membranes, [3H]quinuclidinyl benzylate 0.31 nM, 25° C., 60 minutes; read-out: Test D MUSC IC50
Procedure: Test D--[^3 H]Quinuclidinyl benzylate displacement from rat cortical muscarinic receptor binding sites
(a) Radioligand--DL-[3-^3 H]Quinuclidinyl benzylate (Amersham International, TRK 506, 12 Ci/mmol) was used as a 1 μCi/1 μl solution and this stock solution was diluted 1/13333 in assay buffer and 0.1 ml volumes of this were added to 2 ml binding assay =0.31 nM and =0.0075 μCi/binding assay
as §1
(c) Non-specific binding--Non-specific binding was accounted for by the inclusion of 100 μM oxotremorine sesquifumarate in blank binding assays and this required a stock solution of 2 mM in distilled H2 O.
(d) Displacement compounds--As for Test B
(e) Assay protocol--As for Test B with the exception that the binding assays were incubated at 25° C. for 60 minutes.

Sequence of rat striatal dopamine receptor (P61169 whole entry): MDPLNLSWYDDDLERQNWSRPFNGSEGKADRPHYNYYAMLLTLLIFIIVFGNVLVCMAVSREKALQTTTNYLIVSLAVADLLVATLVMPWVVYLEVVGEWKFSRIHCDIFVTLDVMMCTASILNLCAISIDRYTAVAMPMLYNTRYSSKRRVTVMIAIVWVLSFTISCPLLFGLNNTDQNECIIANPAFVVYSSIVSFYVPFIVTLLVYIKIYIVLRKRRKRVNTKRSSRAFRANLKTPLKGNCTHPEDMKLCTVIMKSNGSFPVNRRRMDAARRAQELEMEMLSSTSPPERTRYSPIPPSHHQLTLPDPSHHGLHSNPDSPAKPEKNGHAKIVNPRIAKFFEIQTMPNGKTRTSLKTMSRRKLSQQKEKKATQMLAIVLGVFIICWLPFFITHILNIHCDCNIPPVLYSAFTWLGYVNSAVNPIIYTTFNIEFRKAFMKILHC

SMILES | IC50 [1] | IC50 (rat cortical α1 receptor) | IC50 (rat cortical α2 receptor) | IC50 [2]
O=c1c2c(sc3ccccc13)CCN(CC1CCCC1)C2 [Example 27, 2-cyclopentylmethyl-1,2,3,4-tetrahydro-10H-(1)-benzothiopyrano[3,2-c]pyridin-10-one] | 40 nM | 680 nM | 50 nM | 57500 nM
O=c1c2c(sc3ccc(Cl)cc13)CCNC2 [Example 7, 8-chloro-1,2,3,4-tetrahydro-10H-(1)-benzothiopyrano[3,2-c]pyridin-10-one hydrochloride] | 5100 nM | > 10000 nM | 2200 nM | 85100 nM
O=c1c2c(sc3ccccc13)CCNC2 [Example 1, 1,2,3,4-tetrahydro-10H-(1)-benzothiopyrano[3,2-c]pyridin-10-one hydrochloride] | 6500 nM | 6600 nM | 600 nM | 32000 nM
O=c1c2c(sc3ccccc13)CCN(CCC1CCCCC1)C2 [Example 30] | 180 nM | 1150 nM | 190 nM | > 100000 nM
O=C(CN1CCc2sc3ccccc3c(=O)c2C1)c1ccccc1 [Example 33] | > 10000 nM | > 10000 nM | > 10000 nM | > 100000 nM
O=C(CCCN1CCc2sc3ccccc3c(=O)c2C1)c1ccc(F)cc1 [Example 16, 2-(4-p-fluorophenyl-4-oxobutyl)-1,2,3,4-tetrahydro-10H-(1)-benzothiopyrano-[3,2-c]pyridin-10-one hydrochloride] | 20 nM | 20 nM | 20 nM | > 100000 nM
O=c1c2c(sc3ccccc13)CCN(CC1CCCCCC1)C2 [Example 28] | 150 nM | 2820 nM | 320 nM | > 100000 nM
O=c1c2c(sc3ccccc13)CCN(CC1CC1)C2 [Example 25, 2-cyclopropylmethyl-1,2,3,4-tetrahydro-10H-(1)-benzothiopyrano[3,2-c]pyridin-10-one] | 220 nM | 1230 nM | 60 nM | 43000 nM
C=CCN1CCc2sc3ccccc3c(=O)c2C1 [Example 34] | 2810 nM | 3980 nM | 390 nM | 37200 nM
O=c1c2c(sc3ccc4ccccc4c13)CCNC2 [Example 5, 1,2,3,4-tetrahydro-12H-naphtho[1',2':5,6]thiopyrano[3,2-c]pyridin-12-one hydrochloride] | 5200 nM | 1700 nM | 1600 nM | 19500 nM
CN1CCc2sc3ccccc3c(=O)c2C1 [Example 12, 1,2,3,4-tetrahydro-2-methyl-10H-(1)-benzothiopyrano[3,2-c]pyridin-10-one hydrochloride] | 2800 nM | 3100 nM | 930 nM | 32400 nM
CC(C)CCN1CCc2sc3ccccc3c(=O)c2C1 [Example 15, 1,2,3,4-tetrahydro-2-isopentyl-10H-(1)-benzothiopyrano[3,2-c]pyridin-10-onehydrochloride] | 60 nM | 680 nM | 170 nM | 87100 nM
CC(C)CN1CCc2sc3ccccc3c(=O)c2C1 [Example 19, 1,2,3,4-tetrahydro-2-isobutyl-10H-(1)-benzothiopyrano[3,2-c]pyridin-10-one hydrochloride] | 100 nM | 4600 nM | 150 nM | > 100000 nM
O=c1c2c(sc3ccc(F)cc13)CCN(CC1CCCCC1)C2 [Example 24, 2-cyclohexylmethyl-8-fluoro-1,2,3,4-tetrahydro-10H-(1)-benzothiopyrano[3,2-c]pyridin-10-one hydrochloride] | 40 nM | > 10000 nM | > 10000 nM | > 100000 nM
O=c1c2c(sc3ccccc13)CCN(C1CCCCC1)C2 [Example 37] | 160 nM | 1590 nM | 600 nM | 11700 nM
CCOC(=O)CCN1CCc2sc3ccccc3c(=O)c2C1 [Example 21, 2-(2-ethoxycarbonylethyl)-1,2,3,4-tetrahydro-10H-(1)-benzothiopyrano[3,2-c]pyridin-10-one hydrochloride] | 780 nM | 7100 nM | 1000 nM | 100000 nM

From US4547507A, “Benzothiopyranopyridinones” (Roussel Uclaf, priority 1982, dated 1985)
